Data as given in patent US20050137255A1, “Crystalline escitalopram hydrobromide and methods for preparing the same” (H. Lundbeck A/S, priority 2002, published 2005).
Entries after “also recorded” stand apart in the source; their conditions may differ. Counter-ions that a name gives are not always drawn.

Key:
Format in all cases: physicochemical
[1] = Thermogravimetric analysis (TGA) of Form I; conditions: heated 10°/min
Protocol: The sample (1-5 mg) was heated 10°/min. on a TA Instruments TGA 2950 (available from TA Instruments of New Castle, Del.). No weight loss (<0.1%) was observed up to 150° C. Decomposition began at approximately 240° C.

[2] = Stability (stated property)
[3] = Dynamic vapor sorption (DVS) of Form I
[4] = Exposure of crystalline material to air (hygroscopicity); conditions: sample exposed to air

decomposition began [1]: approximately 240 °C
weight loss ([1]; up to 150° C.): < 0.1%
stability [2]: stable
hygroscopicity ([3]; after water uptake at 80% relative humidity): very hygroscopic
water absorbed ([3]; at 80% relative humidity, corresponds to 14%): about 3.6 mol-equivalent of water
water absorbed ([3]; at 95% relative humidity): ~9 mol-equivalent of water
water absorbed ([3]; first run, at 80% relative humidity): 14%
water absorbed ([3]; first run, until the relative humidity exceeded 70%): no water was absorbed
hygroscopicity [4]: non-hygroscopic
SMILES: CN(C)CCC[C@@]1(c2ccc(F)cc2)OCc2cc(C#N)ccc21 [Form I, (S)-1-[3-(dimethylamino)propyl]-1-(4-fluorophenyl)-1,3-dihydro-5-isobenzofuran carbonitrile hydrobromide]
hygroscopicity ([3]; relative humidity less than (about) 70%, hydrobromide): not hygroscopic; also recorded: non-hygroscopic
